# Measurements taken from patent US20260242738A1, “ALK5 INHIBITORS FOR EFFICIENT DERIVATION OF MESENCHYMAL STEM CELLS FROM EMBRYONIC STEM CELLS” (SCRIPPS HEALTH, priority 2022, published 2026).
# B1: PDGFbb: growth factor conjugated to pneumatospun collagen type I scaffold (protein, UniProt P01127 82-190, looked up)
# Platelet-derived growth …: SLGSLTIAEPAMIAECKTRTEVFEISRRLIDRTNANFLVWPPCVEVQRCSGCCNNRNVQCRPTQVQLRPVQVRKIEIVRKKPIFKKATVTLEDHLACKCETVAAARPVT
# modifications: BB homodimer; conjugated to collagen scaffold
# B2: TGFb3: growth factor conjugated to pneumatospun collagen type I scaffold (protein, UniProt P10600 301-412, looked up)
# Transforming growth factor …: ALDTNYCFRNLEENCCVRPLYIDFRQDLGWKWVHEPKGYYANFCSGPCPYLRSADTTHSTVLGLYNTLNPEASASPCCVPQDLEPLTILYYVGRTPKVEQLSNMVVKSCKCS
# modifications: conjugated to collagen type I scaffold
# Experiments:
# [1] = test system: hiPSC; conditions: CHIR99021 and TTNPB used together; cited from earlier work
# [2] = test system: pluripotent stem cells; conditions: LLY-507 and AZD5153 combined, monolayer on Matrigel-coated plates; cited from earlier work
# [3] = test system: ex vivo osteoarthritic cartilage explants; experiment: Ex vivo human osteoarthritic cartilage defect repair with fibrin-ECM constructs or pellets; type: cell-based; conditions: implanted as hydrogel or pellets, 3 weeks, serum-free chondrogenic medium with TGFβ3 10 ng/ml
# Description: Monolayer cultured ES-MSC were suspended in a hydrogel wafer composed of collagen II (Innovative Research Inc. Novi, MI), hyaluronate (Supartz FX sodium hyaluronate, Seikagaku Corp. Tokyo, Japan), chondroitin sulfate (Sigma-Aldrich) and fibrin (Baxter Healthcare, Deerfield, IL) at a density of 20×10^6 cells per ml. The fibrinogen and thrombin components were prepared separately. To each fibrinogen component, 2 mg/ml sodium hyaluronate, 2 mg/ml chondroitin sulfate and 6 mg/ml collagen II was added (2× concentration of final). Cells were added to the thrombin component at a density of 40×10^6 cells per ml. Thrombin and fibrinogen components in individual syringes were attached to a Baxter DUO mixing syringe and extruded to form the coagulated constructs. The constructs were either directly implanted into ex vivo cartilage tissue or coagulated in 6 well tissue culture plates for 4 to 8 minutes before 4-6 ml of chondrogenic medium was added. To prevent shrinkage of the constructs during culture, the gels were held on AdminPatch microneedle arrays (AdminMed, Sunnyvale, CA) for the duration of their culture.
# Osteochondral tissues were obtained from patients ranging between 60 to 70 years of age undergoing total knee arthroplasty within 4-6 hours of surgery (approved by Scripps Institutional Review Board) as previous described. Cartilage disks (6 mm in diameter and ~2-3 mm thick) were harvested from the osteochondral specimens using a sterile dermal punch. The cartilage tissue was cultured in medium consisting of DMEM (Mediatech Inc., Manassas, VA) supplemented with 10% calf serum (Omega Scientific Inc., Tarzana, CA) and 1% Penicillin-Streptomycin-Gentamycin (Life Technologies, Carlsbad, CA). Cartilage disks were maintained in 6-well plates (2-4 per well) in 8 ml medium for 72 hours before creation of the surgical defect. A flame-sterilized stainless-steel burr was used create defects approximately 2×2 mm wide and 0.5 to 1 mm deep. These defects were filled with pellets or hydrogel constructs trimmed to size using 2 mm dermal biopsy punches. […]
# [4] = test system: HADC 100 ES-MSC; experiment: Pellet culture chondrogenesis, histology and immunohistochemistry; type: cell-based, human; conditions: HADC 100 ES-MSC, 3 weeks, Safranin-O, collagen type I and II
# Description: Monolayer-expanded ES-MSC (passage 2-5) were detached using Accutase® and 0.5×10^6 cells in 0.5 ml of chondrogenic medium were centrifuged at 900 rpm (~770 G) for 5 minutes to form high-density pellets. At least 5-6 pellets, for each ES-MSC condition, were cultured in serum-free chondrogenic medium consisting of Dulbecco's Modified Eagle Medium (Mediatech Inc., Manassas, VA), 1×ITS supplement (Sigma-Aldrich, St. Louis, MO), 100 nM Dexamethasone (Sigma), 1.25 mg/ml human serum albumin (Bayer, Leverkusen, Germany), 100 μM ascorbic acid 2-phosphate (Sigma), 1% penicillin/streptomycin/gentamycin (PSG, Gibco, Carlsbad, CA), and 10 ng/ml TGFβ3 (PeproTech, Rocky Hill, NJ). Pellets for ex vivo implantation were cultured for 3 days before implantation; pellets for histologic or gene expression analysis were maintained in culture for 3 weeks with media changes every 3 to 4 days.
# Cell pellets and explants were fixed in Z-Fix (3.7% formaldehyde, Anatech Ltd., Battle Creek, MI), processed for embedding in paraffin, and cut into 4 μm-thick sections. Sections were stained with Safranin-O and Fast Green to visualize glycosaminoglycan distribution in the tissues. Alzarin Red S staining was used to detect the presence of mineralized matrix.
# For assessment of collagen types I and II, sections were pretreated with pepsin (Digest-All 3, Thermo Fisher Scientific) for 9 minutes at 37° C. in a humid chamber before incubation at 4° C. for 12 to 16 hours with the following primary antibodies: rabbit anti-human collagen type I antibody (Ab 34710, Abcam, Cambridge, MA) 1 μg/ml; or mouse anti-human collagen type II (II-II6B3, Hybridoma Bank, University of Iowa) 2 μg/ml. For color development, the ImmPRESS secondary DAB (brown) or AP (red) kits (Vector Laboratories, Burlingame, CA) was used. Isotype controls were used to monitor non-specific staining.
# [5] = test system: ex vivo human meniscus tissue; experiment: ES-MSC on growth factor conjugated collagen scaffolds implanted into ex vivo human meniscus defects; type: cell-based; conditions: growth factor conjugated scaffold, 2 weeks in vitro, 5 weeks in ex vivo meniscus defect; ES-MSC from SB525334
# Description: In a similar experiment, meniscus cartilage-like tissues produced by seeding ES-MSC derived from ALK-5 inhibitor SB525334 upon blow spun collagen scaffolds were implanted into ex vivo human meniscus defects. ES-MSC were seeded upon a glutaraldehyde crosslinked pneumatospun collagen type I scaffold (3.5×1 mm disks) that was conjugated with growth factors (TGFb1, TGFb3 or PDGFbb) or unconjugated (control). After 2 weeks in differentiation medium in vitro, the disks were implanted into 3.5 mm defects formed in ex vivo human meniscus tissue and cultured for 5 weeks.
molecule,measurement,setting,value
C/C(=C\c1ccc(C(=O)O)cc1)c1ccc2c(c1)C(C)(C)CCC2(C)C [TTNPB],collagen type II immunocytochemical staining of chondroprogenitors,[1],abundant collagen type II immunocytochemical staining
Cc1cn(CCN2CCN(c3ccccc3-c3cc(C#N)cc(C(=O)NCCCN4CCCC4)c3)CC2)c2ccccc12 [LLY-507],induction of MSC phenotype,[2],successfully induced MSC phenotype
O=C(NC1CCOCC1)c1ccc(-c2cc(-c3c[nH]nc3-c3ccccn3)ccn2)cc1 [GW788388],cartilaginous neo-tissue formation in ex vivo osteoarthritic explants,[3],formed equally well
same,cartilage-like tissue formation in high density pellets,[4],also produced cartilage-like tissue
COc1nnc2ccc(N3CCC(c4ccc(OCCN5CCN(C)C(=O)[C@H]5C)cc4)CC3)nn12 [AZD5153],induction of MSC phenotype,[2],successfully induced MSC phenotype
TGFβ1: growth factor conjugated to pneumatospun collagen type I scaffold,collagen type of neo-meniscus like ECM,[5],higher in collagen type II
Cc1c[nH]c(-c2cnc(NCCNc3ccc(C#N)cn3)nc2-c2ccc(Cl)cc2Cl)n1 [CHIR99021],collagen type II immunocytochemical staining of chondroprogenitors,[1],abundant collagen type II immunocytochemical staining
B1,collagen type of neo-meniscus like ECM,[5],both collagen type I and II rich ECM
B2,collagen type of neo-meniscus like ECM,[5],higher in collagen type II
